From patent publication US5925769A, “Acetylenic 1,5-diarylpyrazoles as antiinflammatory agents” (Ortho Pharmaceutical, Corp., priority 1998, dated 1999)

Key:
CO = target: T1, CO (Rattus norvegicus, UniProt Q63921); assay: Procedure III: CO (PgD2) in intact RBL-1 cells; assay type: cell-based; details: calcium ionophore A 23187, read-out: Proc. III CO IC50
T1 construct: the supernatant was saved as the source of enzymes; endogenous in cells; host or cells: RBL-1 (rat basophilic leukemia) cells
T1 sequence (Q63921 27-602): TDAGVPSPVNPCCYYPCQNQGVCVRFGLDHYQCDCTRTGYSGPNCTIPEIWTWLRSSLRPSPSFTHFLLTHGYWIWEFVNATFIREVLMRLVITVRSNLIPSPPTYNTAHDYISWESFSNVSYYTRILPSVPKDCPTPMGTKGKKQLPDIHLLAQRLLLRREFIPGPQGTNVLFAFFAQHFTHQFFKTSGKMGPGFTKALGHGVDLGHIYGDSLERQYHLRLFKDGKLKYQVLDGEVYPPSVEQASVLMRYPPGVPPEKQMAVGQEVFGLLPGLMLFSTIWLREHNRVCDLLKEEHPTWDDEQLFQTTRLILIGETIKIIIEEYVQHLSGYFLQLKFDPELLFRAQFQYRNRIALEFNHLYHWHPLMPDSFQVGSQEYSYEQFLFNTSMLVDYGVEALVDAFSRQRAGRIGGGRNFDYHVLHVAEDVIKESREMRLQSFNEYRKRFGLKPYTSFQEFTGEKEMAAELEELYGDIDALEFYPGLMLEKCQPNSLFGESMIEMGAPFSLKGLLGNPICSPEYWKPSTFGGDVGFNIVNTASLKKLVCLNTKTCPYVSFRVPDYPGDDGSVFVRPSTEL
Summary of the method: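 Intact RBL-1 cells at 1×10^5 cells/mL in HBSS were preincubated with vehicle or drug, pelleted and resuspended, then given 1-^14C-AA. 5-HETE (5-LO) and PgD2 (CO) were separated by TLC after acidification/extraction and quantified by radioimaging; IC50 from regression curve fit.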

5-LO = target: T2, 5-LO (Rattus norvegicus, UniProt P12527); assay: Procedure II: 5-LO activity (5-HETE) in broken RBL-1 cells (homogenate supernatant); assay type: biochemical; details: RBL-1 broken cell supernatant; read-out: Proc. II 5-LO IC50
T2 construct: the supernatant was saved as the source of enzymes; endogenous in cells; host or cells: RBL-1 (rat basophilic leukemia) cells
T2 sequence (P12527 1-673): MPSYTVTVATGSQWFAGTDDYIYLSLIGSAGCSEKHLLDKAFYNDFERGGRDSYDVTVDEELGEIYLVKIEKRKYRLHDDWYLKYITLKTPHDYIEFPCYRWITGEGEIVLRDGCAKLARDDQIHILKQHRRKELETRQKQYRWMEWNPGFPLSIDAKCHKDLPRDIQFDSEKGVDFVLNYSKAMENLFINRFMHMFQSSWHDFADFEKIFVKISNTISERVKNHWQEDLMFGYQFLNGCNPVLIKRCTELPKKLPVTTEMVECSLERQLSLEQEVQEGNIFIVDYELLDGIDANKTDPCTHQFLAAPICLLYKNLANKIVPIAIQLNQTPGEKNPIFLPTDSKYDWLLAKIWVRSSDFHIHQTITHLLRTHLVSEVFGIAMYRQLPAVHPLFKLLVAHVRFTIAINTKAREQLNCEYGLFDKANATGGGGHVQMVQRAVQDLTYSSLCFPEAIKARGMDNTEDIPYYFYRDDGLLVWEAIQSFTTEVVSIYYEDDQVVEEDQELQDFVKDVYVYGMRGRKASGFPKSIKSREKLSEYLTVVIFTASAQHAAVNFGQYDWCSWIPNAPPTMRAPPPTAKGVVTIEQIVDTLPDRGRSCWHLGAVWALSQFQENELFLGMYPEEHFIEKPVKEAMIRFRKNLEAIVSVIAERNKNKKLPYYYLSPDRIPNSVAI
Summary of the method: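 Supernatant from rat RBL-1 homogenate (9,220×g) was pre-incubated 5 min at 37 °C with 2 mM CaCl2 and compound or 1% DMSO, then with 1-^14C-arachidonic acid for 20 min at 37 °C.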

IC50 (CO): 12.1 µM
IC50 (5-LO): 0.07 µM
Compound: COc1ccc(-n2nc(C#CCN(O)C(N)=O)cc2-c2ccc(C)cc2)cc1 [Cpd 1, N-Hydroxy-N-(1(1-(4-methoxyphenyl)-5-(4-methylphenyl)pyrazol-3-yl)-1-propyn-3-yl)urea]
